Measurements published in patent US8273766B2, “Tetrahydroisoquinoline compound” (Kowa Company, Ltd., priority 2007, dated 2012).

Target: T1, CCR3 (Cavia porcellus, UniProt Q9Z2I3)
T1 construct: from tissue; host or cells: peritoneal eosinophils of polymyxin B-treated male Hartley guinea pigs (Japan SLC, Inc.)
T1 sequence (Q9Z2I3 1-358): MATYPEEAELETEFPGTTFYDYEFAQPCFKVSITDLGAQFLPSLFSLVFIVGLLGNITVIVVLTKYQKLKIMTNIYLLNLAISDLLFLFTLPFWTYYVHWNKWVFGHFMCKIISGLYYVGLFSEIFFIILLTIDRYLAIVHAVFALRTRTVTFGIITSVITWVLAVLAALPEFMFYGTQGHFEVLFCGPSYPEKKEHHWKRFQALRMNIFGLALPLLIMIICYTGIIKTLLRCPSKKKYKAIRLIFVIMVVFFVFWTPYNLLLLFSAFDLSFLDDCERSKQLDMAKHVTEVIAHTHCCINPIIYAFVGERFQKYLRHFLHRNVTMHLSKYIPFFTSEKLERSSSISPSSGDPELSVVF
Test: CCR3 antagonistic action: eotaxin-induced migration of guinea pig eosinophils (chemotaxis chamber)
Type: cell-based
Details: inhibition of migration of guinea pig eosinophils toward guinea pig eotaxin 100 ng/mL; 30 min pretreatment at 37° C., 1 hour reaction
Description: Test Example 1 Test of a CCR3 Antagonistic Action
Guinea pig eosinophils were prepared with reference to a literature (Pinkus, Blood. 52 (1978) 127-134). That is, to a six-week old male Hartley guinea pig (Japan SLC, Inc.) was intraperitoneally injected polymyxin B (SIGMA) diluted with PBS (−) at 2 mg per animal once a week. After repeating the same operation four times for 24 hours, the abdominal cavity of each individual under anesthesia with diethyl ether was injected with 50 mL of PBS (−) containing 6 U/mL of heparin and 1 mM EDTA, and the liquid was collected. It was washed with PBS (−) containing 1 mM EDTA, and the cells were suspended in a Percoll solution having a specific density of 1.070 were centrifuged using a discontinuous Percoll gradient liquid to obtain an eosinophilic crude fraction. After washing with PBS (−), they were suspended in RPMI-1640 culture medium (SIGMA) containing 1% FCS, and cultured in a CO2 incubator overnight. Next day, the cells were harvested, a compound to be tested was added to the eosinophils suspended in the RPMI-1640 culture medium containing 0.1% BSA (bovine serum albumin, SIGMA), and then pretreatment was performed by leaving it to stand still at 37° C. for 30 minutes. A mixed liquid of guinea pig eotaxin (Chemical Synthesis Services) and the compound to be tested that had been prepared to be at a final concentration of 100 ng/mL was added into a lower chamber of 96-well chemotaxis chambers (Neuroprobe), and then a mixed liquid of 12.0×10^5 eosinophils per well and the compound to be tested was sequentially set in an upper chamber of a polycarbonate filter (Neuroprobe) having a pore size of 5 μm after completion of the treatment with polyvinyl pyrrolidone (PVP), and allowed to undergo a reaction in a CO2 incubator for 1 hour. After completion of the reaction, the filter was taken out, the cells were stained in a Diff-Quik stain kit (International Reagents Co., Ltd.), and the migrated eosinophils were microscopically counted. Five fields of view per well were counted, and an average value of the counts was taken as a count of migrated eosinophils.

IC50 | Compound
80 nM | CC(C)(C)c1ccc(CNCCN2Cc3ccc(F)cc3CC2Cc2ccc(Cl)cc2)cc1 (stereo not drawn) [Example 156, N-(4-tert-butylbenzyl)-2-[3-(4-chlorobenzyl)-6-fluoro-3,4-dihydroisoquinolin-2(1H)-yl]ethanamine]
4 nM | CC(C)Nc1ccc(CNCCN2Cc3ccc(F)cc3CC2Cc2ccc(F)cc2)cc1 (stereo not drawn) [Example 138, 4-[[2-[6-fluoro-3-(4-fluorobenzyl)-3,4-dihydroisoquinolin-2(1H)-yl]ethylamino]methyl]-N-isopropylaniline]
25 nM | CC(C)Nc1ccc(CNCCN2Cc3cc(F)ccc3CC2Cc2ccc(F)cc2)cc1 (stereo not drawn) [Example 161, 4-[[2-[7-fluoro-3-(4-fluorobenzyl)-3,4-dihydroisoquinolin-2(1H)-yl]ethylamino]methyl]-N-isopropylaniline]
40 nM | CCNc1ccc(CNCCN2Cc3ccc(F)cc3CC2Cc2ccc(F)cc2)cc1 (stereo not drawn) [Example 139, 4-[[2-[6-fluoro-3-(4-fluorobenzyl)-3,4-dihydroisoquinolin-2(1H)-yl]ethylamino]methyl]-N-ethylaniline]
4 nM | COCCNc1ccc(CNCCN2Cc3ccc(F)cc3CC2Cc2ccc(F)cc2)cc1 (stereo not drawn) [Example 150, 4-[[2-[6-fluoro-3-(4-fluorobenzyl)-3,4-dihydroisoquinolin-2(1H)-yl]ethylamino]methyl]-N-(2-methoxyethyl)aniline]
20 nM | CC(C)(O)c1ccc(CNCCN2Cc3ccc(F)cc3CC2Cc2ccc(F)cc2)cc1 (stereo not drawn) [Example 154, N-[4-(1-hydroxy-1-methylethyl)benzyl]-2-[6-fluoro-3-(4-fluorobenzyl)-3,4-dihydroisoquinolin-2(1H)-yl]ethanamine]

The remaining lines, values behind:

Compound | IC50
CS(=O)(=O)Nc1cccc(CNCCN2Cc3ccc(F)cc3CC2Cc2ccc(Cl)cc2)c1 (stereo not drawn) [Example 157, N-(3-methanesulfonylaminobenzyl)-2-[3-(4-chlorobenzyl)-6-fluoro-3,4-dihydroisoquinolin-2(1H)-yl]ethanamine] | 25 nM
CC(=O)c1cccc(CNCCN2Cc3ccccc3CC2Cc2ccc(F)cc2)c1 (stereo not drawn) [Example 106, N-(3-acetylbenzyl)-2-[3-(4-fluorobenzyl)-3,4-dihydroisoquinolin-2(1H)-yl]ethanamine] | 7 nM
CC(C)(C)c1ccc(CNCCN2Cc3ccccc3CC2Cc2ccc(F)cc2)cc1 (stereo not drawn) [Example 96, N-(4-tert-butylbenzyl)-2-[3-(4-fluorobenzyl)-3,4-dihydroisoquinolin-2(1H)-yl]ethanamine] | 30 nM
Fc1ccc(CC2Cc3cc(F)ccc3CN2CCNCc2ccncc2)cc1 (stereo not drawn) [Example 180, N-(pyridin-4-yl)methyl-2-[6-fluoro-3-(4-fluorobenzyl)-3,4-dihydroisoquinolin-2(1H)-yl]ethanamine] | 2 nM
Fc1ccc(CC2Cc3ccccc3CN2CCNCc2ccncc2)cc1 (stereo not drawn) [Example 171, N-(pyridin-4-yl)methyl-2-[3-(4-fluorobenzyl)-3,4-dihydroisoquinolin-2(1H)-yl]ethanamine] | 14 nM
CS(=O)(=O)Nc1cccc(CNCCN2Cc3ccc(F)cc3CC2Cc2ccc(F)cc2)c1 (stereo not drawn) [Example 126, N-[3-(methanesulfonylamino)benzyl]-2-[6-fluoro-3-(4-fluorobenzyl)-3,4-dihydroisoquinolin-2(1H)-yl]ethanamine] | 1 nM
